Measured values taken from patent US20240000812A1, “PHARMACOLOGICAL AGENTS FOR TREATING CONDITIONS OF THE EYE” (PLEX PHARMACEUTICALS, INC., priority 2020, published 2024).
Counter-ions that a name gives are not always drawn.

Tests used:
[1] = tested on: experimental myopia in guinea pigs; conditions: systemic administration; cited from earlier work
[2] = tested on: experimental myopia in chickens; conditions: intravitreal administration; cited from earlier work
COMT = conditions: known COMT inhibitors, cited from earlier work
bovine lens extracts = assay: UVC/H2O2-induced aggregation of bovine lens extracts; assay type: biochemical; conditions: 7 minutes exposure
Excerpt: FIG. 2 represents data relating to UVC/H2O2-induced aggregation of bovine lens extracts, as described in Example 4.

[3] = tested on: experimental myopia in rabbits; conditions: intravitreal administration of exogenous dopamine; cited from earlier work
[4] = tested on: chicks with form deprivation myopia; assay: Form deprivation myopia chick model, scleral proteoglycan synthesis (35SO4 incorporation into glycosaminoglycans); assay type: in vivo; conditions: high (2.25 mM) and low (0.75 mM) dose, 20 ul intravitreal daily for seven days; measured four hours after the final dose
Procedure: Three compounds (quinpirole, CAP4719, and L-DOPA) were tested in chicks for their effects on scleral proteoglycan synthesis, as a measure of scleral growth, axial elongation and myopia. CAP4719 has the following structure: […]
Form deprivation myopia is induced in the right eyes of 4-5 days old chicks by the application of translucent occluders. […] At the end of the treatment period, chicks are sacrificed, their sclera labelled in organ culture with 35SO4, and scleral proteoglycan synthesis measured by CPC-precipitation of newly synthesized glycosaminoglycans. Radioactivity is measured using scintillation counting, and the amount of radioactivity compared (as CPM) between right and left eyes of all groups of animals by paired t-tests and between different groups using ANOVA. […]
The right eyes were goggled (myopic) and injected with either the high dose, low dose, or vehicle of the CAP4719 compound. Proteoglycan synthesis was measured as the amount of 35SO4 (cpm) incorporated into glycosaminoglycans four hours after the final dose. […]

## N[C@@H](Cc1ccc(O)c(O)c1)C(=O)O [L-Dopa]
[1]
  Development of experimental myopia: inhibit the development of experimental myopia
[2]
  Development of experimental myopia: inhibit the development of experimental myopia

## O=C(CCN1CCN(c2cccc(C(F)(F)F)c2)CC1)c1cc(O)c(O)c([N+](=O)[O-])c1 [BIA 3-335, 1-(3,4-Dihydroxy-5-nitrophenyl)-3-{4-[3-(trifluoromethyl)phenyl]-1-piperazinyl}-1-propanone dihydrochloride]
COMT
  Ki: 6 nM

## Cc1ccc(C(=O)c2cc(O)c(O)c([N+](=O)[O-])c2)cc1 [CAP1160]
Bovine lens extracts
  Prevention of UVC/H2O2-induced aggregation of bovine lens extracts: prevents UVC/H2O2-induced aggregation of bovine lens extracts

## NCCc1ccc(O)c(O)c1 [dopamine]
[3]
  Development of experimental myopia: inhibit the development of experimental myopia

## O=C(NCCCNC(=O)c1ccc(O)c(O)c1)c1ccc(O)c(O)c1 [Bifunctional inhibitor, N,N′-(propane-1,3-diyl)bis(3,4-dihydroxybenzamide)]
COMT; read-out: IC50 (concentration of the inhibitor that affords a 50% inhibition in the activity of the enzyme, COMT)
  IC50: 300 nM

## Cc1c(Cl)c(C)[n+]([O-])c(Cl)c1-c1noc(-c2cc(O)c(O)c([N+](=O)[O-])c2)n1 [Opicapone]
COMT
  Ki: 1 nM

## Cc1ccc(C(=O)c2cc(OC(=O)CCCP(=O)([O-])[O-])c(O)c([N+](=O)[O-])c2)cc1.[Na+].[Na+] [CAP4719]
[4]
  Block of the increase in proteoglycan synthesis in the goggled (myopic) right eye: did not completely block the increase in proteoglycan synthesis
  Percentage increase in proteoglycan synthesis over the left (control) eye, compared with the vehicle: appears to be lower
